For data set [1], the system named is patients with rhinitis, allergic rhinitis in particular. Put plainly: Administration tests of CNP, BNP or ANP nasal solution preparations in rhinitis patients (case studies). Type of data set: in vivo, human. The conditions noted are these: for Symptom improvement (severity level before → after application): 50 μg/ml nasal solution, one spray (130 μl, 6.5 μg) in each nostril once or twice a day, each value one patient (Case); for Effect on nasal itching / tickling feeling (in words): 50 μg/ml twice a day; for Time after application until slight improvement in nasal itching: initial application; for Overall effect on rhinitis symptoms (in words): patients with rhinitis, BNP versus ANP. As for the experimental part:
Diagnosis, evaluation of symptoms, and examination of the CNP nasal drop preparations, BNP nasal drop preparations and ANP nasal drop preparation were performed as follows. The subjects are patients in whom conventional external medicines such as steroids are not sufficiently effective, or patients in whom the use of steroids must be avoided due to local side effects such as nasal irritation and dryness. Diagnosis and treatment of these subjects were performed by the present applicant as a medical doctor. Severity evaluation of symptoms of allergic rhinitis was performed, in principle, in accordance with “Guidelines for medical care of nasal allergies, 2009 edition” (edited by the committee for creation of guidelines for medical care of nasal allergies), by classifying into 5 stages as shown below. Here, “mixed type” refers to the cases wherein both of the sneezing attack or rhinorrhea and the nasal occlusion were presented with the same severity. […] In the above table, evaluation scores for sneezing fit, rhinorrhea and nasal occlusion are as described in the table below. […] Administration tests of the nasal solution preparations of the present invention were performed by, in principle, spraying the CNP nasal solution, BNP nasal solution or ANP nasal solution used to fill a nasal spraying device twice a day at awakening time and before bedtime, with one spray in each nostril at each time. […] Prior to the application of CNP preparations, BNP preparations or ANP preparation, the subjects' history was obtained, scratch tests for allergens were performed and diagnosis was made.

A further data set has as its system pollen allergy. Conditions: after 2 weeks of application, spraying once a day; cited from earlier work.
The mark [2] stands for this setting: 50 μg/ml, initial or continued application, listed as ANP nasal solution.

“Also recorded” adds a separate entry of the source.

Take `CC[C@H](C)[C@@H]1NC(=O)[C@H](CCCNC(=N)N)NC(=O)[C@H](CC(=O)O)NC(=O)[C@H](CCSC)NC(=O)[C@H](CCCCN)NC(=O)[C@H](CCCNC(=N)N)NC(=O)CNC(=O)[C@H](Cc2ccccc2)NC(=O)[C@@H](NC(=O)CNC(=O)[C@H](CO)NC(=O)CNC(=O)[C@H](CCC(N)=O)NC(=O)[C@@H](NC(=O)[C@H](CCSC)NC(=O)[C@H](CCCCN)NC(=O)[C@@H]2CCCN2C(=O)[C@@H](N)CO)C(C)C)CSSC[C@@H](C(=O)N[C@@H](CCCCN)C(=O)N[C@H](C(=O)N[C@@H](CC(C)C)C(=O)N[C@@H](CCCN=C(N)N)C(=O)N[C@@H](CCCN=C(N)N)C(=O)N[C@@H](Cc2cnc[nH]2)C(=O)O)C(C)C)NC(=O)CNC(=O)[C@H](CC(C)C)NC(=O)CNC(=O)[C@H](CO)NC(=O)[C@H](CO)NC(=O)[C@H](CO)NC(=O)[C@H](CO)NC1=O` [BNP nasal solution preparation, human BNP-32]: the “Local irritation symptoms / side effects” value in data set [1] (50 μg/ml nasal spray) is given as “later. No irritation”; in data set [1] (50 μg/ml nasal spray, listed as BNP nasal solution), “local irritation symptoms did not occur; also recorded: no irritation symptoms were observed”; in data set [1] (100 μg/ml nasal spray) it was “it does not exhibit such side effects”; in data set [1] (200 μg/ml nasal spray, listed as BNP nasal solution), “no local irritation symptoms or feelings of discomfort”.

Turning to `CC[C@H](C)[C@@H]1NC(=O)[C@H](CCCNC(=N)N)NC(=O)[C@H](CC(=O)O)NC(=O)[C@H](CC(C)C)NC(=O)[C@H](CCCCN)NC(=O)[C@H](CC(C)C)NC(=O)CNC(=O)[C@H](Cc2ccccc2)NC(=O)[C@@H](NC(=O)CNC(=O)[C@H](CCCCN)NC(=O)[C@H](CO)NC(=O)[C@H](CC(C)C)NC(=O)CN)CSSC[C@@H](C(=O)O)NC(=O)CNC(=O)[C@H](CC(C)C)NC(=O)CNC(=O)[C@H](CO)NC(=O)[C@H](CCSC)NC(=O)[C@H](CO)NC(=O)CNC1=O` [CNP nasal solution preparation, human CNP-22], in data set [1] (100 μg/ml nasal spray), the “Local irritation symptoms / side effects” value is recorded as “side effects such as local irritation symptoms were not observed; also recorded: No local irritation symptoms were observed; also recorded: No local side effects such as irritation, as well as no systemic side effects such as drowsiness were observed; also recorded: without irritation or local side effects; also recorded: without any irritation symptoms”; the “Permeability of the nasal solution (in words)” value was “good and good permeability”.

As to `C[C@@H]1C[C@H]2[C@@H]3CCC4=CC(=O)C=C[C@]4(C)[C@@]3(Cl)[C@@H](O)C[C@]2(C)[C@@]1(OC(=O)c1ccco1)C(=O)CCl` [Mometasone furoate hydrate], in the data set with pollen allergy, the “Degree of improvement in nasal occlusion” value is listed as 30-40% and the “Degree of improvement in overall symptoms” value is 40-50%.

As to “human ANP-28 [ANP nasal solution preparation]”, the “Symptom improvement (severity level before → after application)” value in data set [1] is given as “Severe → severe”; in data set [1] (listed as ANP nasal solution) it was “severe before the ANP application to still severe”. Moreover, the “Effect on nasal itching / tickling feeling (in words)” value is given as “improved slightly” in data set [1] and “slightly improved” in data set [1] (listed as ANP nasal solution). The “Time after application until slight improvement in nasal itching” value in data set [1] (50 μg/ml) was “At 1 hr later, a slight”; in data set [1] (50 μg/ml, listed as ANP nasal solution), “One hour later”. Also, the “Effect on nasal occlusion (in words)” value was “sensation was not improved” in data set [1] (50 μg/ml, initial or continued application) and “not improved; also recorded: no changes” in data set [1] (setting [2]). In addition, the “Effect on rhinorrhea / runny nose (in words)” value in data set [1] (setting [2]) was “did not stop; also recorded: no changes; also recorded: not improved; also recorded: No improvement”. Moreover, in data set [1] (50 μg/ml, once or twice a day), the “Number of nose blows under application” value is on record as “approximately 20 times a day”. Besides, the “Persistence of the effects of an application (in words)” value in data set [1] (50 μg/ml, one application, listed as ANP nasal solution) was “persistence was short”. Moreover, in data set [1] (50 μg/ml, subjective, listed as ANP nasal solution), the “Time after application until nasal passages opened” value amounted to 20 min. Further, the figures for the “Overall effect on rhinitis symptoms (in words)” value in data set [1] and in data set [1] (listed as ANP preparations) were “no immediate effect was observed” and “no improvements or worsening”, respectively.

(Values after patent US11452762B2, “Method of treating rhinitis with C-type natriuretic peptides” (IGISU Co., Ltd., priority 2009, dated 2022).)
